In article PMC6120666 (The EMBO Journal, 2018):

How the values were obtained:
Experiment in all cases: Drug affinity chromatography with c-ponatinib and LC-MS/MS (ponatinib interactome)
Type in all cases: binding
[1] = molecular target: T1, proteins of U2OS cell lysate (Homo sapiens, UniProt P62266); settings: captured protein RPS23, Rank 181
T1 construct: Proteins enriched by c-ponatinib from U2OS cell lysate; endogenous in cells; host or cells: U2OS cell lysate
Method in brief: (§1)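 Proteins were identified by nano-UPLC–MS/MS after elution with formic acid and trypsin digestion. They were captured from U2OS lysate (2 mg protein per pulldown, NP-40 buffer) on amine-coupled NHS beads during a 2 h incubation at 4 °C.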

[2] = molecular target: T2, proteins of U2OS cell lysate (Homo sapiens, UniProt Q9UHB6); settings: captured protein LIMA1, Rank 120
T2 construct: Proteins enriched by c-ponatinib from U2OS cell lysate; endogenous in cells; host or cells: U2OS cell lysate
Method in brief: as §1

[3] = molecular target: T3, proteins of U2OS cell lysate (Homo sapiens, UniProt O00410); settings: IPO5, Importin-5
T3 construct: Proteins enriched by c-ponatinib from U2OS cell lysate; endogenous in cells; host or cells: U2OS cell lysate
Method in brief: as §1

[4] = molecular target: T4, proteins of U2OS cell lysate (Homo sapiens, UniProt O75821); settings: EIF3G, Eukaryotic translation initiation factor 3 subunit G
T4 construct: Proteins enriched by c-ponatinib from U2OS cell lysate; endogenous in cells; host or cells: U2OS cell lysate
T4 sequence (O75821 whole entry): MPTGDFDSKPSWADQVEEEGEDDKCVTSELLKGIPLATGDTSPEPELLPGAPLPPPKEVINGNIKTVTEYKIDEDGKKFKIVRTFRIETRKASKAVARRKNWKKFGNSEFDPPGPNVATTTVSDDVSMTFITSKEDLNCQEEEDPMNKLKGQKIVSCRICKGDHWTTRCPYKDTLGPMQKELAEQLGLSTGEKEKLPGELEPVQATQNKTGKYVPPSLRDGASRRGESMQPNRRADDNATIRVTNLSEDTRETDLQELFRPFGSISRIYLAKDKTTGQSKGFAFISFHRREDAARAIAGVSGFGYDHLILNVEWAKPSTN
Method in brief: as §1

[5] = molecular target: T5, proteins of U2OS cell lysate (Homo sapiens, UniProt P08195); settings: SLC3A2, 4F2 cell-surface antigen heavy chain
T5 construct: Proteins enriched by c-ponatinib from U2OS cell lysate; endogenous in cells; host or cells: U2OS cell lysate
T5 sequence (P08195 102-630): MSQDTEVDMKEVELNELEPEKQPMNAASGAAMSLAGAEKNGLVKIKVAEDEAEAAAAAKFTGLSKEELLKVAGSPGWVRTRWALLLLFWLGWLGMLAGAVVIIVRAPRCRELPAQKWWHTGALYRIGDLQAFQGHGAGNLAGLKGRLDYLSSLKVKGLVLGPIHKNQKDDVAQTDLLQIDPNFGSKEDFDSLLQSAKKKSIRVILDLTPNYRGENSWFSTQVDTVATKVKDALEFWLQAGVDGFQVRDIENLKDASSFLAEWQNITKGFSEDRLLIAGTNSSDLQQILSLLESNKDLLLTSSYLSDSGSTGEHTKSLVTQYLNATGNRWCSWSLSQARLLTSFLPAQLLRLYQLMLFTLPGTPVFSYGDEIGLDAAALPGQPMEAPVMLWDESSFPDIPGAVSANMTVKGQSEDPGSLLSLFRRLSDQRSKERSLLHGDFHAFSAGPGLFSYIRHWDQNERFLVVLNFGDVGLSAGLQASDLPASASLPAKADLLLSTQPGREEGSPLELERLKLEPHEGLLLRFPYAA
Method in brief: as §1

[6] = molecular target: T6, proteins of U2OS cell lysate (Homo sapiens, UniProt P09038); settings: FGF2, Fibroblast growth factor 2
T6 construct: Proteins enriched by c-ponatinib from U2OS cell lysate; endogenous in cells; host or cells: U2OS cell lysate
T6 sequence (P09038 143-288): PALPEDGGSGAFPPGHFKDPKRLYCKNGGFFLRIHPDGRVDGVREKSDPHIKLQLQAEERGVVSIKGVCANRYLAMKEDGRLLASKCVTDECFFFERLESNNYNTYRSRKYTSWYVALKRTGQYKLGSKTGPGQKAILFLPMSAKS
Method in brief: as §1

[7] = molecular target: T7, proteins of U2OS cell lysate (Homo sapiens, UniProt P12931); settings: SRC, Proto-oncogene tyrosine-protein kinase Src
T7 construct: Proteins enriched by c-ponatinib from U2OS cell lysate; endogenous in cells; host or cells: U2OS cell lysate
T7 sequence (P12931 whole entry): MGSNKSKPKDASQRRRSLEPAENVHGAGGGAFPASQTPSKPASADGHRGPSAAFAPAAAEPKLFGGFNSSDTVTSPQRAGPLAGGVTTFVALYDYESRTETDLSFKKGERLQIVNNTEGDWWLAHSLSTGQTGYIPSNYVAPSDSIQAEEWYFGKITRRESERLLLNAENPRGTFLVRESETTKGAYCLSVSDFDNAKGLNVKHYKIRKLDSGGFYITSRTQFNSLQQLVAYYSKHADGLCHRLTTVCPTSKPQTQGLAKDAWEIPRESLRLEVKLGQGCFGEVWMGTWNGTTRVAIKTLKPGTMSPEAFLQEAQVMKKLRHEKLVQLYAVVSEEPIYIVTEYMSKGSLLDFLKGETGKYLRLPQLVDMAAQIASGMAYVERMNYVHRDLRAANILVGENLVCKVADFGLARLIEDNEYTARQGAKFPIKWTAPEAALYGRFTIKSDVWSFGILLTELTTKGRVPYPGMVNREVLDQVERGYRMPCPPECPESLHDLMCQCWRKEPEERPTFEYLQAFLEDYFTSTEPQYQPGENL
Method in brief: as §1

[8] = molecular target: T8, proteins of U2OS cell lysate (Homo sapiens, UniProt P23246); settings: SFPQ, Splicing factor, proline- and glutamine-rich
T8 construct: Proteins enriched by c-ponatinib from U2OS cell lysate; endogenous in cells; host or cells: U2OS cell lysate
Method in brief: as §1

[9] = molecular target: T9, proteins of U2OS cell lysate (Homo sapiens, UniProt P26368); settings: U2AF2, Splicing factor U2AF 65 kDa subunit
T9 construct: Proteins enriched by c-ponatinib from U2OS cell lysate; endogenous in cells; host or cells: U2OS cell lysate
Method in brief: as §1

[10] = molecular target: T10, proteins of U2OS cell lysate (Homo sapiens, UniProt P26640); settings: VARS, Valine--tRNA ligase
T10 construct: Proteins enriched by c-ponatinib from U2OS cell lysate; endogenous in cells; host or cells: U2OS cell lysate
Method in brief: as §1

[11] = molecular target: T11, proteins of U2OS cell lysate (Homo sapiens, UniProt P54760); settings: EPHB4, Ephrin type-B receptor 4
T11 construct: Proteins enriched by c-ponatinib from U2OS cell lysate; endogenous in cells; host or cells: U2OS cell lysate
T11 sequence (P54760 16-987): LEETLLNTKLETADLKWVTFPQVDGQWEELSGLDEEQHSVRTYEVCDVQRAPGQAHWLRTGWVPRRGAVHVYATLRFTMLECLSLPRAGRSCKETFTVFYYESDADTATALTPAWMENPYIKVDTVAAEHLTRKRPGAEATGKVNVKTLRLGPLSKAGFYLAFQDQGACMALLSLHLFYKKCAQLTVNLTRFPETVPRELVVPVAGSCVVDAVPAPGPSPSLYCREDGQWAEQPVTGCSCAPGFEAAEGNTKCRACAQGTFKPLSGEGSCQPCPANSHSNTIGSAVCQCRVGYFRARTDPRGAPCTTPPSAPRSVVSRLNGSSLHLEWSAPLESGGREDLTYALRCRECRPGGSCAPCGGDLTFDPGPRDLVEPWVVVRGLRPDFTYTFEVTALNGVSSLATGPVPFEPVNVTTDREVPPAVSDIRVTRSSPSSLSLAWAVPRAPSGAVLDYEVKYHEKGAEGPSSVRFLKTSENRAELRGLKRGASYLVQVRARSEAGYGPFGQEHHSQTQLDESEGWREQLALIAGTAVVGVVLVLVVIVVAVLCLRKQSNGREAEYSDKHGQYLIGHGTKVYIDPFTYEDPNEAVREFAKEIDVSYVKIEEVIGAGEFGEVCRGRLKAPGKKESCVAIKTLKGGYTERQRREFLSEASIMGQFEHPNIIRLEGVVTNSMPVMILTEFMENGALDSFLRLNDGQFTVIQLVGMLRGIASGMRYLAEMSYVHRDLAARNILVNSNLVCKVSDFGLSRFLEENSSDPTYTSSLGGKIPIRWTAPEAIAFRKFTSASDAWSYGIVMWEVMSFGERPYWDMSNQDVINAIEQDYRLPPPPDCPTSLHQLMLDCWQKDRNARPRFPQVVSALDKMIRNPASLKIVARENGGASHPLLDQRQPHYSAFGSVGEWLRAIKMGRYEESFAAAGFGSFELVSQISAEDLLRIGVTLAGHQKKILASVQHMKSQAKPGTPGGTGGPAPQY
Method in brief: as §1

[12] = molecular target: T12, proteins of U2OS cell lysate (Homo sapiens, UniProt P60660); settings: MYL6, Myosin light polypeptide 6
T12 construct: Proteins enriched by c-ponatinib from U2OS cell lysate; endogenous in cells; host or cells: U2OS cell lysate
T12 sequence (P60660 whole entry): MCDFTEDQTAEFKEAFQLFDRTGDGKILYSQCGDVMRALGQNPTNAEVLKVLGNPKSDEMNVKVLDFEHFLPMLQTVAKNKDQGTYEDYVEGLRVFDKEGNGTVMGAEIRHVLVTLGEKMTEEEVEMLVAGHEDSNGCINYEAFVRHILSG
Method in brief: as §1

[13] = molecular target: T13, proteins of U2OS cell lysate (Homo sapiens, UniProt P62191); settings: PSMC1, 26S protease regulatory subunit 4
T13 construct: Proteins enriched by c-ponatinib from U2OS cell lysate; endogenous in cells; host or cells: U2OS cell lysate
T13 sequence (P62191 whole entry): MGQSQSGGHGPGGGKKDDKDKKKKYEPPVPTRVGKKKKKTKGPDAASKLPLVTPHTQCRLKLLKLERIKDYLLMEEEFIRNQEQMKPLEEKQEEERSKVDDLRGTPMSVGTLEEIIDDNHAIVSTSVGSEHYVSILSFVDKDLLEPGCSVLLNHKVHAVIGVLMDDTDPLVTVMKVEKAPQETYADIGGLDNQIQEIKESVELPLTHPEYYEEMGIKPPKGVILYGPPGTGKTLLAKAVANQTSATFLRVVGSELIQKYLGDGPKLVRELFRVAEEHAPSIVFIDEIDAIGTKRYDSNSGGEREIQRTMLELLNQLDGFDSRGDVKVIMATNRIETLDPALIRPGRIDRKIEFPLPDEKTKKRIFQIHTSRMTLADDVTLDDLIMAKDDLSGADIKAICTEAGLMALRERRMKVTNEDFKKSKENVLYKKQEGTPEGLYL
Method in brief: as §1

[14] = molecular target: T14, proteins of U2OS cell lysate (Homo sapiens, UniProt P62714); settings: PPP2CB, Serine/threonine-protein phosphatase 2A catalytic subunit beta isoform
T14 construct: Proteins enriched by c-ponatinib from U2OS cell lysate; endogenous in cells; host or cells: U2OS cell lysate
T14 sequence (P62714 whole entry, canonical isoform): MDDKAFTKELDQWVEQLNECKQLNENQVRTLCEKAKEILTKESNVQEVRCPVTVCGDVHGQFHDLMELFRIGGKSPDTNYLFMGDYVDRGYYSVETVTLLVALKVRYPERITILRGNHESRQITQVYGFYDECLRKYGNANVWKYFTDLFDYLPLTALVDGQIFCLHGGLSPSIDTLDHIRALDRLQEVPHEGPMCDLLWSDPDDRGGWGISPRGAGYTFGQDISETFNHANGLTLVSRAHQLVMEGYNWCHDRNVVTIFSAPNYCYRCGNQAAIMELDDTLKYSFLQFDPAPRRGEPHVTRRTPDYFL
Method in brief: as §1

[15] = molecular target: T15, proteins of U2OS cell lysate (Homo sapiens, UniProt Q16854); settings: DGUOK, Deoxyguanosine kinase, mitochondrial
T15 construct: Proteins enriched by c-ponatinib from U2OS cell lysate; endogenous in cells; host or cells: U2OS cell lysate
T15 sequence (Q16854 40-277): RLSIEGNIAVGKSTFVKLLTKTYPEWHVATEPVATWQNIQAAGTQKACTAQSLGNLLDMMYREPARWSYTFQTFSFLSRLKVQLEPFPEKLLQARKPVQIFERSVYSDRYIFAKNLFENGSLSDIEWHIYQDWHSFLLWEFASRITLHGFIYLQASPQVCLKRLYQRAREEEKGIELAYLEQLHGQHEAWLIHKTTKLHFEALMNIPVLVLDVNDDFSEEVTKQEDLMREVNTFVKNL
Method in brief: as §1

[16] = molecular target: T16, proteins of U2OS cell lysate (Homo sapiens, UniProt Q8TEX9); settings: IPO4, Importin-4
T16 construct: Proteins enriched by c-ponatinib from U2OS cell lysate; endogenous in cells; host or cells: U2OS cell lysate
Method in brief: as §1

[17] = molecular target: T17, proteins of U2OS cell lysate (Homo sapiens, UniProt Q9UFG5); settings: C19orf25, UPF0449 protein C19orf25
T17 construct: Proteins enriched by c-ponatinib from U2OS cell lysate; endogenous in cells; host or cells: U2OS cell lysate
T17 sequence (Q9UFG5 whole entry): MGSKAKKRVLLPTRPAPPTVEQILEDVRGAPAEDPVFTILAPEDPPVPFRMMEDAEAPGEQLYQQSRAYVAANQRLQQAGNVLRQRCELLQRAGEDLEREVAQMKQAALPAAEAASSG
Method in brief: as §1

[18] = molecular target: T18, proteins of U2OS cell lysate (Homo sapiens, UniProt Q9UMS4); settings: PRPF19, Pre-mRNA-processing factor 19
T18 construct: Proteins enriched by c-ponatinib from U2OS cell lysate; endogenous in cells; host or cells: U2OS cell lysate
Method in brief: as §1

[19] = molecular target: T19, proteins of U2OS cell lysate (Homo sapiens, UniProt Q9Y2D5); settings: AKAP2, A-kinase anchor protein 2
T19 construct: Proteins enriched by c-ponatinib from U2OS cell lysate; endogenous in cells; host or cells: U2OS cell lysate
T19 sequence (Q9Y2D5 whole entry): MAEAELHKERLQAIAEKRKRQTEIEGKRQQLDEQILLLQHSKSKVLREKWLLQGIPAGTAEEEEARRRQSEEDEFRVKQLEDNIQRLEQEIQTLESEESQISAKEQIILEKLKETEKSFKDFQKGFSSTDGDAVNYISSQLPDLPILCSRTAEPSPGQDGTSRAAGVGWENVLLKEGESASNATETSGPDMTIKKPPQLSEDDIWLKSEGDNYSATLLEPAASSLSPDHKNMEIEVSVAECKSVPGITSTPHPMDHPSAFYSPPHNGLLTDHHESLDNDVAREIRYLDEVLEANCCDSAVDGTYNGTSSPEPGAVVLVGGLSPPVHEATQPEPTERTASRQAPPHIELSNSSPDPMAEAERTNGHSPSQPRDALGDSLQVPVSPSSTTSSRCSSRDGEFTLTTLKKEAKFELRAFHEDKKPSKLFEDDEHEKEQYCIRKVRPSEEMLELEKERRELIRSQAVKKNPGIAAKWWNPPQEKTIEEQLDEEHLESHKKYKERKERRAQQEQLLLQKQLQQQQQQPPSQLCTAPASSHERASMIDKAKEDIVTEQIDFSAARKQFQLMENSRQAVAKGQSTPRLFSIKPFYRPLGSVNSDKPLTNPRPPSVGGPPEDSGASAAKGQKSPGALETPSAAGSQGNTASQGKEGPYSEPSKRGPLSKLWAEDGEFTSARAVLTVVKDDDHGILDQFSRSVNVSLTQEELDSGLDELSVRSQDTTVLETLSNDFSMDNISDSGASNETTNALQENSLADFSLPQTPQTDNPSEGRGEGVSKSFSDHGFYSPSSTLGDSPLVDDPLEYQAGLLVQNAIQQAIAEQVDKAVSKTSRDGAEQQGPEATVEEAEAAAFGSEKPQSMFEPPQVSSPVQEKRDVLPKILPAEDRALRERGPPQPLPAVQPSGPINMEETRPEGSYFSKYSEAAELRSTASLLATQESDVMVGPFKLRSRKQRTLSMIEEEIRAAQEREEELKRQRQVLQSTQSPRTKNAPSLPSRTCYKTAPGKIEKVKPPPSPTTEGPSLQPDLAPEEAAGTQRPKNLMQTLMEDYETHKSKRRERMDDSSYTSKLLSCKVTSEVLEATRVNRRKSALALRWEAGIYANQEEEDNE
Method in brief: as §1

SMILES	Average LFQ intensity [1]	Average LFQ intensity [2]	Average LFQ PON_WT [3]	Average LFQ PON_WT [4]	Average LFQ PON_WT [5]	Average LFQ PON_WT [6]	Average LFQ PON_WT [7]	Average LFQ PON_WT [8]	Average LFQ PON_WT [9]	Average LFQ PON_WT [10]	Average LFQ PON_WT [11]	Average LFQ PON_WT [12]	Average LFQ PON_WT [13]	Average LFQ PON_WT [14]	Average LFQ PON_WT [15]	Average LFQ PON_WT [16]	Average LFQ PON_WT [17]	Average LFQ PON_WT [18]	Average LFQ PON_WT [19]
Cc1ccc(C(=O)Nc2ccc(CN3CCN(CCCN)CC3)c(C(F)(F)F)c2)cc1C#Cc1cnc2cccnn12 [c-ponatinib, reference compound]	22.1736	23.0824																	
Cc1ccc(C(=O)Nc2ccc(CN3CCN(C)CC3)c(C(F)(F)F)c2)cc1C#Cc1cnc2cccnn12 [PON]			21.1425	21.2492	18.7801	20.5832	24.0256	20.8702	21.5048	20.4235	25.577	23.7934	23.3461	21.415	23.2666	20.7176	20.1092	21.24	19.1683
